Each structure is given as a SMILES string.

This data set in a line: clinical. The following applies: male, human, in vivo.

Protocol: This was an open-label, randomized, two-treatment, two-period, two-sequence, crossover study under fasted conditions comparing the test and reference products. The study was conducted with 16 healthy, non-tobacco-, non-nicotine-using, adult male subjects. In one period of the study, one (1) TBZ patch, 8 mg/96 hr was applied to the subject's upper outer left arm and kept in place for 96 hours following an overnight fast of at least 10 hours. In the other study period, 1×12.5 mg Tetrabenazine Tablet (Lupin) was administered every 8 hours from Day 1 through Day 4 for a total daily dose of 37.5 mg and a total dose of 150 mg for the 12 doses over the 4 days. […]
Blood samples were collected pre-dose and at intervals over 120 hours after dosing (0-hour) with the study drug in each study period. Samples were analyzed by the bioanalytical laboratory for those subjects who were dosed with at least one of the study products (Treatment A or B).
The plasma concentrations of TBZ (RR and SS isomers) and its active metabolites (RRR, SSS, SRR and RSS) were measured by a fully validated analytical procedure. […]
The plasma concentrations of TBZ (RR and SS isomers) and its HTBZ metabolites (RRR, SSS, SRR and RSS) were measured by a fully validated analytical procedure for those subjects who were dosed with at least one of the study products (Treatment A or B).

`COc1cc2c(cc1OC)[C@H]1CC(=O)[C@H](CC(C)C)CN1CC2` [R,R-tetrabenazine, (3R,11bR)-1,3,4,6,7,11b-Hexahydro-9,10-dimethoxy-3-(2-methylpropyl)-2H-benzo[a]quinolizin-2-one] gave a half-life of around 8.5 h.

As a reminder, the half-life is how long it takes for the measured level to halve.

(Values after patent publication US20220362165A1, “TETRABENAZINE TRANSDERMAL DELIVERY DEVICE” (SHINKEI THERAPEUTICS LLC, priority 2019, published 2022).)
